From paper PMC10327353 (Breast Cancer Research : BCR, 2023)

Assay: Phase 1 study: safety and tolerability
Assay type: in vivo
Experimental: The maximum tolerated dose (MTD) of DZD1516 was defined based on safety data and the Bayesian optimal interval (BOIN) design (Additional file 1). The definition of DLT is provided in Additional file 1.
The AE grading was assessed according to the NCI-Common Terminology Criteria for Adverse Events (CTCAE) (version 5.0) and was monitored until 28 days after the last dose.
Eligible patients received single oral dosing of DZD1516 on Cycle 0 Day 1 (C0D1), followed by a 7-day washout. Twice daily oral dosing (bid) of DZD1516 was commenced from C1D1 in a continuous 21-day cycle until disease progression, unacceptable toxicity, or withdrawal of consent. All doses were taken under fed conditions (within 30 minutes after a meal).
Planned dosing consisted of 25, 50, 100, 200, 300, and 400 mg. Each dose escalation cohort will comprise a minimum of three and a maximum of six evaluable patients (except only one patient in the starting dose cohort). The maximum tolerated dose of DZD1516 was defined according to safety data and the Bayesian optimal interval (BOIN) design. Dose escalation/de-escalation rule with target toxicity rate for the MTD is 0.30 with interval of (0.20, 0.33).
DLTs were any adverse event (AE) not clearly attributable to the patient’s disease, including ≥ grade 4 hematological toxicities present for ≥ 4 days, grade 3 thrombocytopenia with bleeding, or grade 4 thrombocytopenia lasting for > 5 days, ≥ grade 3 non-hematological toxicities that is dose-limiting in the judgment of the investigators. Any other toxicity that is greater than that at baseline, is clinically significant or unacceptable, and is judged to be a DLT by the SRC. Exceptions included alopecia of any grade and isolated grade 3 laboratory change without clinical sequelae or clinical significance.
Safety evaluations were conducted at screening, on Day 1, 8, and 15 of Cycle 1, on Day 1 of each subsequent treatment cycle, at the end-of-treatment visit, and clinically indicated. Safety assessments included clinical laboratory measurements (hematology, chemistry, coagulation, and urinalysis), electrocardiogram (ECG), Echocardiogram/MUGA scan, ECOG performance status, vital signs, and physical examinations.

COc1cc(O[C@H]2CCN(C)CC2(F)F)c2c(Nc3ccc(Oc4ccn5ncnc5c4)c(C)c3)ncnc2c1 [DZD1516]
1 (25.0) n (%): Nervous system disorders, Any Grade (50 mg (N = 4)) | Platelet count decreased, Any Grade (50 mg (N = 4)) | Proteinuria, Any Grade (50 mg (N = 4)) | Renal and urinary disorders, Any Grade (50 mg (N = 4)) | White blood cell count decreased, Any Grade (50 mg (N = 4)) | Anemia, Any Grade (100 mg (N = 4)) | Any TEAE: Grade 3 (100 mg (N = 4)) | Any TEAE: Leading to treatment interruption (100 mg (N = 4)) | Any TEAE: SAE (100 mg (N = 4)) | Blood and lymphatic system disorders, Any Grade (100 mg (N = 4)) | Constipation, Any Grade (100 mg (N = 4)) | Decreased appetite, Any Grade (100 mg (N = 4)) | Dizziness, Any Grade (100 mg (N = 4)) | Drug-related TEAE: Grade 3 (100 mg (N = 4)) | Drug-related TEAE: Leading to treatment interruption (100 mg (N = 4)) | Drug-related TEAE: SAE (100 mg (N = 4)) | Fatigue, Any Grade (100 mg (N = 4)) | Gastrointestinal disorders, ≥ Grade 3 (100 mg (N = 4)) | General disorders and administration site conditions, Any Grade (100 mg (N = 4)) | Investigations, ≥ Grade 3 (100 mg (N = 4))
3 (75.0) n (%): Participants with any TEAE, Any Grade (50 mg (N = 4)) | Subjects with any TEAE (50 mg (N = 4)) | Subjects with any drug-related TEAE (50 mg (N = 4)) | Investigations, Any Grade (100 mg (N = 4))
2 (50.0) n (%): Gastrointestinal disorders, Any Grade (100 mg (N = 4)) | Headache, Any Grade (100 mg (N = 4))
0 (0.0) n (%): Nervous system disorders, ≥ Grade 3 (50 mg (N = 4)) | Participants with any TEAE, ≥ Grade 3 (50 mg (N = 4)) | Platelet count decreased, ≥ Grade 3 (50 mg (N = 4)) | Proteinuria, ≥ Grade 3 (50 mg (N = 4)) | Renal and urinary disorders, ≥ Grade 3 (50 mg (N = 4)) | Vomiting, Any Grade (50 mg (N = 4)) | Vomiting, ≥ Grade 3 (50 mg (N = 4)) | White blood cell count decreased, ≥ Grade 3 (50 mg (N = 4)) | Alanine aminotransferase increased, Any Grade (100 mg (N = 4)) | Alanine aminotransferase increased, ≥ Grade 3 (100 mg (N = 4)) | Anemia, ≥ Grade 3 (100 mg (N = 4)) | Any TEAE: Leading to death (100 mg (N = 4)) | Any TEAE: Leading to dose reduction (100 mg (N = 4)) | Any TEAE: Leading to treatment discontinuation (100 mg (N = 4)) | Aspartate aminotransferase increased, Any Grade (100 mg (N = 4)) | Aspartate aminotransferase increased, ≥ Grade 3 (100 mg (N = 4)) | Blood and lymphatic system disorders, ≥ Grade 3 (100 mg (N = 4)) | Blood bilirubin increased, Any Grade (100 mg (N = 4)) | Blood bilirubin increased, ≥ Grade 3 (100 mg (N = 4)) | Cardiac disorders, Any Grade (100 mg (N = 4)) | Cardiac disorders, ≥ Grade 3 (100 mg (N = 4)) | Constipation, ≥ Grade 3 (100 mg (N = 4)) | Decreased appetite, ≥ Grade 3 (100 mg (N = 4)) | Dizziness, ≥ Grade 3 (100 mg (N = 4)) | Drug-related TEAE: Leading to death (100 mg (N = 4)) | Drug-related TEAE: Leading to dose reduction (100 mg (N = 4)) | Drug-related TEAE: Leading to treatment discontinuation (100 mg (N = 4)) | Fatigue, ≥ Grade 3 (100 mg (N = 4)) | General disorders and administration site conditions, ≥ Grade 3 (100 mg (N = 4)) | Headache, ≥ Grade 3 (100 mg (N = 4)) | Hemoglobin decreased, Any Grade (100 mg (N = 4)) | Hemoglobin decreased, ≥ Grade 3 (100 mg (N = 4)) | Lipase increased, Any Grade (100 mg (N = 4)) | Lipase increased, ≥ Grade 3 (100 mg (N = 4))
